Source: US6274715A, “Tricyclic erythromycin derivatives” (priority 1997, dated 2001)
Values after ≈ are worked out from the molar mass of the structure shown.

Experiments:
Format in all cases: cell-based
CANDIDA ALBICANS CCH 442 = experiment: In vitro antibacterial activity, MIC, BHI agar dilution; conditions: C. albicans CCH 442, unit assumed
[1] = tested on: ENTEROBACTER AEROGENES ATCC 13048; experiment: as above; conditions: E. aerogenes ATCC 13048, unit assumed
[2] = tested on: PROVIDENCIA STUARTII CMX 640; conditions: P. stuartii CMX 640; BHI agar; unit assumed
PSEUDOMONAS CEPACIA 296I = experiment: In vitro antibacterial activity, MIC, BHI agar dilution; conditions: P. cepacia 296I, unit assumed
[3] = tested on: STAPHYLOCOCCUS AUREUS CMX 642A; experiment: as above; conditions: S. aureus CMX 642A, unit assumed
[4] = tested on: PSEUDOMONAS AERUGINOSA K799/WT; experiment: as above; conditions: P. aeruginosa K799/WT, unit assumed
[5] = tested on: PSEUDOMONAS AERUGINOSA K799/61; experiment: as above; conditions: P. aeruginosa K799/61, unit assumed
EN[…] ATCC 8043 = experiment: as above; conditions: E. faecium ATCC 8043, unit assumed
Method in brief: (§1)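 Agar dilution in BHI: plates inoculated with 1:100 dilutions of organisms (1:10 for Micrococcus and Streptococcus), incubated 20-24 h at 35-37° C, then inspected for the lowest inhibitory concentration against a drug-free growth control.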

STR[…] 508 = experiment: as above; conditions: S. agalactiae CMX 508, unit assumed
Method in brief: as §1

M[…] ATCC 4698 = experiment: as above; conditions: M. luteus ATCC 4698, unit assumed
Method in brief: as §1

M[…] ATCC 9341 = experiment: as above; conditions: M. luteus ATCC 9341, unit assumed
Method in brief: as §1

ESCHERICHIA COLI SS = experiment: as above; conditions: E. coli SS, unit assumed
[6] = tested on: STAPHYLOCOCCUS AUREUS 1775; experiment: as above; conditions: S. aureus 1775, unit assumed
ESCHERICHIA COLI DC-2 = experiment: as above; conditions: E. coli DC-2, unit assumed
[7] = tested on: STAPHYLOCOCCUS AUREUS A-5278; experiment: as above; conditions: S. aureus A-5278, unit assumed
[8] = tested on: STAPHYLOCOCCUS AUREUS ATCC 6538P; experiment: as above; conditions: S. aureus ATCC 6538P, 35-37° C., 20 to 24 hours, unit assumed
[9] = tested on: STAPHYLOCOCCUS AUREUS CMX 553; experiment: as above; conditions: S. aureus CMX 553, unit assumed
[10] = tested on: PSEUDOMONAS AERUGINOSA 5007; experiment: as above; conditions: P. aeruginosa 5007, unit assumed
[11] = tested on: STREPTOCOCCUS PYOGENES 930; experiment: as above; conditions: S. pyogenes 930, unit assumed
[12] = tested on: STAPHYLOCOCCUS EPIDERMIDIS 3519; conditions: S. epidermidis 3519; BHI agar; unit assumed
ESCHERICHIA COLI H560 = experiment: In vitro antibacterial activity, MIC, BHI agar dilution; conditions: E. coli H560, unit assumed
ESCHERICHIA COLI JUHL = conditions: E. coli JUHL; BHI agar; unit assumed
[13] = tested on: KLEBSIELLA PNEUMONIAE ATCC 8045; experiment: In vitro antibacterial activity, MIC, BHI agar dilution; conditions: K. pneumoniae ATCC 8045, unit assumed
[14] = tested on: STREPTOCOCCUS BOVIS A-5169; experiment: as above; conditions: S. bovis A-5169, unit assumed
[15] = tested on: PSEUDOMONAS AERUGINOSA DPHD-5263; experiment: as above; conditions: P. aeruginosa DPHD-5263, unit assumed
[16] = tested on: PSEUDOMONAS AERUGINOSA BMH10; experiment: as above; conditions: P. aeruginosa BMH10, unit assumed
[17] = tested on: STAPHYLOCOCCUS AUREUS A5177; experiment: as above; conditions: S. aureus A5177, unit assumed
[18] = tested on: MYCOBACTERIUM SMEGMATIS ATCC 114; experiment: as above; conditions: M. smegmatis ATCC 114, unit assumed
ESCHERICHIA COLI KNK 437 = conditions: E. coli KNK 437; BHI agar; unit assumed
[19] = tested on: PSEUDOMONAS AERUGINOSA DPHD-2862; experiment: In vitro antibacterial activity, MIC, BHI agar dilution; conditions: P. aeruginosa DPHD-2862, unit assumed
[20] = tested on: STREPTOCOCCUS PYOGENES PIU 2548; experiment: as above; conditions: S. pyogenes PIU 2548, unit assumed
[21] = tested on: STAPHYLOCOCCUS AUREUS NCTC10649M; experiment: as above; conditions: S. aureus NCTC10649M, unit assumed
[22] = tested on: STREPTOCOCCUS PYOGENES EES61; experiment: as above; conditions: S. pyogenes EES61, unit assumed

SMILES | MIC (CANDIDA ALBICANS CCH 442) | MIC [1] | MIC [2] | MIC (PSEUDOMONAS CEPACIA 296I) | MIC [3] | MIC [4] | MIC [5] | MIC (EN[…] ATCC 8043) | MIC (STR[…] 508) | MIC (M[…] ATCC 4698) | MIC (M[…] ATCC 9341) | MIC (ESCHERICHIA COLI SS) | MIC [6] | MIC (ESCHERICHIA COLI DC-2) | MIC [7] | MIC [8] | MIC [9] | MIC [10] | MIC [11] | MIC [12] | other results
CC[C@H]1OC(=O)[C@H](C)C(=O)[C@H](C)[C@@H](O[C@@H]2O[C@H](C)C[C@H](N(C)C)[C@H]2O)[C@](C)(OC)C[C@@H](C)C2=NC3CN(C)CC3N3C(=O)O[C@@]1(C)[C@H]3[C@H]2C (stereo partly drawn) [Example 114] | > 100 µg/mL | 100 µg/mL (≈ 144 µM) | > 100 µg/mL | > 100 µg/mL | 1.56 µg/mL (≈ 2.25 µM) | > 100 µg/mL | 6.2 µg/mL (≈ 8.95 µM) | 0.2 µg/mL (≈ 0.289 µM) | 0.1 µg/mL (≈ 0.144 µM) | 1.56 µg/mL (≈ 2.25 µM) | 0.1 µg/mL (≈ 0.144 µM) | 0.78 µg/mL (≈ 1.13 µM) | > 100 µg/mL | 100 µg/mL (≈ 144 µM) | > 100 µg/mL | 1.56 µg/mL (≈ 2.25 µM) | 1.56 µg/mL (≈ 2.25 µM) | > 100 µg/mL | > 100 µg/mL | 1.56 µg/mL (≈ 2.25 µM) | MIC (ESCHERICHIA COLI H560): 50 µg/mL (≈ 72.2 µM); MIC (ESCHERICHIA COLI JUHL): 100 µg/mL (≈ 144 µM); MIC [13]: > 100 µg/mL; MIC [14]: 0.02 µg/mL (≈ 0.0289 µM); MIC [15]: > 100 µg/mL; MIC [16]: > 100 µg/mL; MIC [17]: 0.78 µg/mL (≈ 1.13 µM); MIC [18]: 6.2 µg/mL (≈ 8.95 µM); MIC (ESCHERICHIA COLI KNK 437): 100 µg/mL (≈ 144 µM); MIC [19]: > 100 µg/mL; MIC [20]: 1.56 µg/mL (≈ 2.25 µM); MIC [21]: 1.56 µg/mL (≈ 2.25 µM); MIC [22]: 0.05 µg/mL (≈ 0.0722 µM)
CC[C@H]1OC(=O)[C@H](C)C(=O)[C@H](C)[C@@H](O[C@@H]2O[C@H](C)C[C@H](N(C)C)[C@H]2O)[C@](C)(OC)C[C@@H](C)C2=NC3CN(CCc4ccc([N+](=O)[O-])cc4)CC3N3C(=O)O[C@@]1(C)[C@H]3[C@H]2C (stereo partly drawn) [Example 118] | > 100 µg/mL | > 100 µg/mL | > 100 µg/mL | > 100 µg/mL | 0.39 µg/mL (≈ 0.471 µM) | > 100 µg/mL | 0.78 µg/mL (≈ 0.942 µM) | 0.2 µg/mL (≈ 0.242 µM) | 0.02 µg/mL (≈ 0.0242 µM) | 0.2 µg/mL (≈ 0.242 µM) | 0.05 µg/mL (≈ 0.0604 µM) | 0.78 µg/mL (≈ 0.942 µM) | > 100 µg/mL | > 100 µg/mL | > 100 µg/mL | 0.39 µg/mL (≈ 0.471 µM) | 0.39 µg/mL (≈ 0.471 µM) | > 100 µg/mL | > 100 µg/mL | 0.39 µg/mL (≈ 0.471 µM) | MIC (ESCHERICHIA COLI H560): 100 µg/mL (≈ 121 µM); MIC (ESCHERICHIA COLI JUHL): 100 µg/mL (≈ 121 µM); MIC [13]: > 100 µg/mL; MIC [14]: ≤ 0.005 µg/mL; MIC [15]: > 100 µg/mL; MIC [16]: > 100 µg/mL; MIC [17]: 0.2 µg/mL (≈ 0.242 µM); MIC [18]: 0.78 µg/mL (≈ 0.942 µM); MIC (ESCHERICHIA COLI KNK 437): > 100 µg/mL; MIC [19]: > 100 µg/mL; MIC [20]: 0.78 µg/mL (≈ 0.942 µM); MIC [21]: 0.39 µg/mL (≈ 0.471 µM); MIC [22]: 0.05 µg/mL (≈ 0.0604 µM)
